In US8586548B2, “NAP alpha-aminoisobutyric acid analog with neuroprotective activity” (Ramot at Tel-Aviv University, Ltd., priority 2009, dated 2013):
Like-named read-outs stand apart in the source and are kept apart here.

Assays:
[1] = tested on: primary hippocampal neurons from presenilin 1 (PSI) mutant knock-in mice; conditions: pretreatment; cited from earlier work
[2] = tested on: rat cerebral cortical neurons; conditions: cited from earlier work
[3] = tested on: newborn apolipoprotein E deficient mice; conditions: newborn apolipoprotein E deficient mice subjected to hypoxia; cited from earlier work
[4] = intranasal administration to rats, dogs or humans; cited from earlier work
[5] = tested on: fibroblast-like cells and neuronal-like cells; conditions: cited from earlier work
[6] = intranasal administration in the rat; cited from earlier work
[7] = tested on: beta amyloid peptide (1-42) toxicity; conditions: cited from earlier work
[8] = target: VQIVYK (SEQ ID NO:10) peptide derived from tau (Homo sapiens, UniProt P10636); test: In vitro tau-like VQIVYK aggregation assay (Thioflavin S); format: biochemical
Experimental: In the presence of polyglutamic acid (or heparin), VQIVYK (SEQ ID NO:10) aggregates which can be further detected by Thioflavin S (excitation 485 nm and emission 535) with emission intensity greatly increasing.
First, different concentrations of polyglutamic acid (0, 100 μM, 250 μM, and 400 μM) VQIVYK (SEQ ID NO:10) and either […] (NH4Ac) 50 mM pH 6.5 or MOPS 20 mM pH 6.5 and Thioflavin S 5 μM were mixed together and incubated at room temperature. The extent of aggregation was read at excitation 485 nm and emission 535 nm using the infinite 200 system with the Magellan program.
The peptides were added at a range of concentrations (10^−17-10^−9 M) and the extent of aggregation of 100 μM VQIVYK (SEQ ID NO:10) was tested in the presence of polyglutamate 250 μM in MOPS 20 μM, pH 6.5 for 7 days.
In order to avoid reading self peptide aggregation as VQIVYK aggregation, for each peptide concentration, the fluorescence of the peptide solution without VQIVYK was subtracted from the fluorescence of each peptide concentration containing VQIVYK.

[9] = tested on: beta amyloid peptide 25-35 neurotoxicity; conditions: cited from earlier work

SALLRSIPA (synthetic activity-dependent neuroprotective protein (ADNP) activity dependent neurotrophic factor 1 (ADNF-1) active core site, ADNF-9)
protection of neurons with increased vulnerability to excitotoxicity [1]: protected by pretreatment with ADNF-9

Asn-Ala-Pro-Val-Ser-Ile-Pro-Gln [NAP]
protection against beta amyloid (25-35) ([2]; neuronal-enriched cultures): protected against beta amyloid (25-35) | protection against beta amyloid (25-35) toxicity ([2]; neurons seeded on a bed of astrocytes): protect against beta amyloid (amino acids 25-35) toxicity | neurodevelopment [3]: enhances neurodevelopment | plasma levels [4]: measurable plasma levels | protection against oxidative stress ([5]; fibroblast-like cells): did not protect fibroblast-like cells | protection against oxidative stress ([5]; neuronal-like cells): did protect neuronal-like cells | appearance in plasma [6]: rapid appearance in plasma | protection against beta amyloid peptide (1-42) toxicity [7]: protection against the toxic beta amyloid peptide (1-42) | inhibition of tau aggregation at 10^−13M ([8]; 100 μM VQIVYK, polyglutamate 250 μM, MOPS pH 6.5, 7 days, FIG. 4, p<0.0005 vs. control): the effect of NAP seems to diminish | prevention of tau aggregation (overall) ([8]; peptides at 10^−17-10^−9 M): effective for preventing tau aggregation

B1: recombinant ADNP: recombinant activity-dependent neuroprotective protein (protein, UniProt Q9H2P0 1-1102, looked up)
Activity-dependent …: MFQLPVNNLGSLRKARKTVKKILSDIGLEYCKEHIEDFKQFEPNDFYLKNTTWEDVGLWDPSLTKNQDYRTKPFCCSACPFSSKFFSAYKSHFRNVHSEDFENRILLNCPYCTFNADKKTLETHIKIFHAPNASAPSSSLSTFKDKNKNDGLKPKQADSVEQAVYYCKKCTYRDPLYEIVRKHIYREHFQHVAAPYIAKAGEKSLNGAVPLGSNAREESSIHCKRCLFMPKSYEALVQHVIEDHERIGYQVTAMIGHTNVVVPRSKPLMLIAPKPQDKKSMGLPPRIGSLASGNVRSLPSQQMVNRLSIPKPNLNSTGVNMMSSVHLQQNNYGVKSVGQGYSVGQSMRLGLGGNAPVSIPQQSQSVKQLLPSGNGRSYGLGSEQRSQAPARYSLQSANASSLSSGQLKSPSLSQSQASRVLGQSSSKPAAAATGPPPGNTSSTQKWKICTICNELFPENVYSVHFEKEHKAEKVPAVANYIMKIHNFTSKCLYCNRYLPTDTLLNHMLIHGLSCPYCRSTFNDVEKMAAHMRMVHIDEEMGPKTDSTLSFDLTLQQGSHTNIHLLVTTYNLRDAPAESVAYHAQNNPPVPPKPQPKVQEKADIPVKSSPQAAVPYKKDVGKTLCPLCFSILKGPISDALAHHLRERHQVIQTVHPVEKKLTYKCIHCLGVYTSNMTASTITLHLVHCRGVGKTQNGQDKTNAPSRLNQSPSLAPVKRTYEQMEFPLLKKRKLDDDSDSPSFFEEKPEEPVVLALDPKGHEDDSYEARKSFLTKYFNKQPYPTRREIEKLAASLWLWKSDIASHFSNKRKKCVRDCEKYKPGVLLGFNMKELNKVKHEMDFDAEWLFENHDEKDSRVNASKTADKKLNLGKEDDSSSDSFENLEEESNESGSPFDPVFEVEPKISNDNPEEHVLKVIPEDASESEEKLDQKEDGSKYETIHLTEEPTKLMHNASDSEVDQDDVVEWKDGASPSESGPGSQQVSDFEDNTCEMKPGTWSDESSQSEDARSSKPAAKKKATMQGDREQLKWKNSSYGKVEGFWSKDQSQWKNASENDERLSNPQIEWQNSTIDSEDGEQFDNMTDGVAEPMHGSLAGVKLSSQQA
neuroprotection in vitro against severe oxidative stress and beta amyloid peptide 25-35 [9]: neuroprotective in vitro
